The values below come from PubChem BioAssay (NCI).

Among the test systems are CCRF-CEM leukemia; NCI-H460 lung; UACC-62 melanoma; CAKI-1 renal; A549 NSCLC; K-562 leukemia; SW-620 colon; HS 578T breast; MDA-MB-435.
Holding throughout (test): NCI anticancer screen, dose series, 48 h

SMILES strings stand for the structures.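 48-hour exposure; five concentrations; linearly interpolated endpoints. GI50 = concentration required for 50% inhibition of growth. Definition used: TGI = concentration required for complete inhibition of growth.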

`CCCCCCCCCCCCCCCc1nc(SCC(=O)O)n[nH]1`: the TGI in the test on CCRF-CEM leukemia, in the test with NCI-H460 lung, in the test on UACC-62 melanoma, with CAKI-1 renal, with A549 NSCLC and in the test with K-562 leukemia was more than 100 µM throughout. The compound further displayed a TGI with SW-620 colon of more than 100 µM.
With `C[C@]12CC[C@H](O)CC1CCC[C@@H]2O` (some centres undefined), the TGI with CCRF-CEM leukemia, in the test with NCI-H460 lung, in the test on UACC-62 melanoma, with CAKI-1 renal, in the test on A549 NSCLC and in the test with K-562 leukemia was more than 100 µM in each case. The compound also displayed a TGI in the test with SW-620 colon of more than 100 µM.
For the compound `Nc1c(-c2ccc(-c3c(N)[n+]([O-])c4ccccc4[n+]3[O-])cc2)[n+]([O-])c2ccccc2[n+]1[O-]`, the TGI in the test on CCRF-CEM leukemia was more than 100 µM; with NCI-H460 lung it was 37.3 µM; in the test with UACC-62 melanoma, 24.3 µM; in the test with CAKI-1 renal it was 20.3 µM; in the test with A549 NSCLC, 51.9 µM; in the test with K-562 leukemia, more than 100 µM. In addition, the TGI with SW-620 colon came to 21.6 µM.
For the compound `CC(=O)NC1C(OCc2ccccc2)OC(COC(=O)CCCCCCCCCCNC(=O)CCNc2ccc([N+](=O)[O-])c3[nH]c4ccc(O)cc4c(=O)c23)C(O)C1OC(C)C(=O)N[C@H](C(=O)N[C@H](CCC(=O)O)C(N)=O)C(C)C` (some centres undefined), the TGI in the test with CCRF-CEM leukemia is 82.5 µM; with NCI-H460 lung, more than 100 µM; in the test with UACC-62 melanoma, more than 100 µM; in the test with CAKI-1 renal, more than 100 µM; in the test on A549 NSCLC it was more than 100 µM; in the test on K-562 leukemia, more than 100 µM.
Consider `O=C(NCCOCCO)c1ccc(O)cc1`, for which the TGI in the test on CCRF-CEM leukemia, in the test with NCI-H460 lung, in the test with UACC-62 melanoma, in the test on A549 NSCLC, with K-562 leukemia and with SW-620 colon was more than 100 µM in each case.
For the compound `O=C1OC(/C=C/c2ccccc2)C(=O)C1=O` (centres undefined), the TGI with CCRF-CEM leukemia, in the test on NCI-H460 lung, in the test with UACC-62 melanoma, in the test with A549 NSCLC, with K-562 leukemia and in the test with SW-620 colon was more than 100 µM each time.
Consider `CC(=O)c1ccc(-c2ccc(C(C)=O)s2)s1`, for which the TGI with CCRF-CEM leukemia, in the test with NCI-H460 lung, in the test with UACC-62 melanoma, in the test with CAKI-1 renal, with A549 NSCLC and in the test on K-562 leukemia was more than 100 µM in each case. The TGI in the test with SW-620 colon was more than 100 µM.
Turning to `O=C1C2Cc3ccccc3CN2C(=O)N1CCN1CCOCC1` (centres undefined), the TGI in the test with CCRF-CEM leukemia, in the test on NCI-H460 lung, in the test on UACC-62 melanoma, with CAKI-1 renal, in the test with A549 NSCLC and with K-562 leukemia was more than 100 µM each time. This compound came in with a TGI with SW-620 colon of more than 100 µM.
With `COc1ccc2c(c1)[n+](=O)c(C(=O)C/C(=N\NC(=O)C[N+](C)(C)C)C(=O)Nc1cc(Cl)ccc1Cl)c(C)n2O`, the TGI with CCRF-CEM leukemia, with NCI-H460 lung, in the test with UACC-62 melanoma, in the test with CAKI-1 renal, with A549 NSCLC and in the test with K-562 leukemia was more than 100 µM in each case. The compound further returned a TGI in the test on SW-620 colon of more than 100 µM.
As to `NCCCSCC(=O)O`, the TGI in the test on UACC-62 melanoma, in the test on CAKI-1 renal, with A549 NSCLC, in the test on K-562 leukemia and in the test on SW-620 colon was more than 100 µM throughout.
Regarding `Cn1c(=O)ccc2cc(C(=O)c3ccccc3)ccc21`, the TGI with CCRF-CEM leukemia was more than 100 µM; with NCI-H460 lung, more than 100 µM; in the test with UACC-62 melanoma, 50.5 µM; in the test on CAKI-1 renal, more than 100 µM; with A549 NSCLC, more than 100 µM; with K-562 leukemia it was more than 100 µM. This compound also had a TGI in the test with SW-620 colon of more than 100 µM.
As for `OC(c1cc2c(Cl)cc(Cl)cc2c2cc(C(F)(F)F)ccc12)C1CCCCN1` (centres undefined), the GI50 is 1.59 µM in the test with HS 578T breast; 1.7 µM with NCI-H460 lung; 2.14 µM in the test on MDA-MB-435; 1.78 µM in the test with UACC-62 melanoma; 1.68 µM with CAKI-1 renal; 1.85 µM in the test with A549 NSCLC. Further, the GI50 in the test with SW-620 colon was 1.76 µM. Moreover, the TGI in the test with HS 578T breast was found to be 3.72 µM; with NCI-H460 lung, 3.4 µM; in the test with MDA-MB-435, 4.75 µM; in the test on UACC-62 melanoma, 3.42 µM; with CAKI-1 renal, 3.46 µM; in the test with A549 NSCLC, 3.68 µM. The same compound had a TGI in the test with SW-620 colon of 3.64 µM.
As to `Cn1c(=O)c2nc3sc4ccccc4c(=N)n3c2n(C)c1=O`, the TGI in the test with CCRF-CEM leukemia, in the test on NCI-H460 lung, in the test on UACC-62 melanoma, in the test on CAKI-1 renal, in the test on A549 NSCLC and with K-562 leukemia was more than 100 µM each time. Besides, the TGI in the test with SW-620 colon is more than 100 µM.
With `CC(=O)Oc1cc(OC(C)=O)c(OC(C)=O)c2c1CC1C(=O)C3(CCc4ccccc43)C(=O)C1C2` (centres undefined), the TGI came out at 75.9 µM with CCRF-CEM leukemia; 28.3 µM with NCI-H460 lung; 31.3 µM in the test on UACC-62 melanoma; 38.3 µM in the test with CAKI-1 renal; 44.6 µM in the test with A549 NSCLC; 28.1 µM in the test with K-562 leukemia. In addition, the TGI in the test with SW-620 colon stood at 42.7 µM.
As for `COc1cccc(/C=N/[N-]C(N)=O)c1[O-].[Cu+2].c1ccncc1`, the TGI in the test on CCRF-CEM leukemia worked out at 56.2 µM; with NCI-H460 lung, 31.9 µM; in the test on UACC-62 melanoma, 41.1 µM; in the test with CAKI-1 renal, 31.1 µM; in the test on A549 NSCLC it was 34.9 µM; in the test with K-562 leukemia it was 58.5 µM. Also, the TGI in the test on SW-620 colon turned out to be 40.8 µM.
In the case of `COC(=O)C1=CCS(=O)(=O)C1`, the TGI in the test with NCI-H460 lung, with UACC-62 melanoma, in the test on CAKI-1 renal, in the test on A549 NSCLC, in the test with K-562 leukemia and in the test on SW-620 colon was more than 100 µM in each case.
As to `OC1/C(=C/c2ccccc2)CNC/C1=C\c1ccccc1` (centres undefined), the TGI in the test with CCRF-CEM leukemia, with NCI-H460 lung, in the test on UACC-62 melanoma, with CAKI-1 renal, in the test on A549 NSCLC and in the test on SW-620 colon was more than 100 µM in each case.
